Columns and labels:
Format in all cases: cell-based
ACKR3 [1] = biological target: T1, ACKR3 (Homo sapiens, UniProt P25106); assay: ACKR3 β-arrestin recruitment assay (PathHunter, β-galactosidase complementation); settings: for Emax: read-out: ACKR3 β-arrestin % CXCL12 Emax ± SEM; for EC50: stable human ACKR3-β-arrestin-2-CHO cells, mean ± SEM, at least two independent experiments in duplicate
Procedure, shortened: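 Agonist mode in PathHunter CHO cells expressing human ACKR3-β-arrestin-2, compounds added in DPBS/1% DMSO for 1.5 hr at 37° C, then detection 1 hr at room temperature, luminescence read. CXCR4 run in C2C12 cells with a 3 hr Cell Plating Reagent 4 preincubation. EC50 and % Emax from three-parameter fits, CXCL-12 as reference agonist; ≥2 independent experiments in duplicate.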

ACKR3 [2] = biological target: T1, ACKR3; assay: Ligand-induced ACKR3 delivery to early endosomes (NanoBRET, U87 cells); parameters: expressed in transfected cells; host or cells: U87-ACKR3 (ACKR3-negative U87 as control); settings: ACKR3-Nanoluciferase / FYVE-mNeonGreen, FIG. 6 section B
Description: Ligand-induced receptor-arrestin delivery to early endosomes was monitored by NanoBRET. In brief, 1.2×10^6 U87 cells were seeded in 10-cm dishes and co-transfected with plasmids encoding ACKR3, C-terminally tagged with Nanoluciferase and FYVE domain of endofin interacting with phosphatidylinositol 3-phosphate (PI3P) in early endosomes46,47, N-terminally tagged with mNeonGreen. 48h post-transfection, cells were distributed into black 96-well plates (1×10^5 cells per well) and treated with full-length or processed chemokines. After 2-hour incubation at 37° C., coelenterazine H (10 μM) was added and donor emission (460 nm) and acceptor emission (535 nm) were immediately measured on a GloMax plate reader (Promega).

MOR = MOR (Homo sapiens, UniProt P35372); assay: NanoBiT-based β-arrestin-2 recruitment assay, MOR; parameters: expressed in transfected cells; host or cells: U87; settings: concentration range 0.15 nM to 80 μM; reference BAM22
Chain of MOR (P35372 whole entry): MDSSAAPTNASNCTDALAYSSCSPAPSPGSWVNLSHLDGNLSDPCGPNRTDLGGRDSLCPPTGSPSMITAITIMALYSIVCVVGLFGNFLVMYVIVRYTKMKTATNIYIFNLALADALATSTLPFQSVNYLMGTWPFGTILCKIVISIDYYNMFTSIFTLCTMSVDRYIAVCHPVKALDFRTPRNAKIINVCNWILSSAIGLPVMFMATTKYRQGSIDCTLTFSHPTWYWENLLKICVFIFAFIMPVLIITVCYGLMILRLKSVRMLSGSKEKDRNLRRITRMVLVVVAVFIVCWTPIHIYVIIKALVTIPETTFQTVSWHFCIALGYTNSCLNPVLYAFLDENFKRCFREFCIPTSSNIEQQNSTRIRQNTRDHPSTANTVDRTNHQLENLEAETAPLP
Description: The ability of the different molecules to activate the four opioid receptors MOR, DOR, KOR and NOP that are known to mediate in vivo analgesic effects was tested using the NanoBiT-based β-arrestin-2 recruitment assay in a concentration range of 0.15 nM to 80 μM. For each of these receptors a reference ligand corresponding to an endogenous opioid peptide i.e. Met-enkephalin, BAM22, Dynorphin A and Nociceptin, respectively was included.
Ligand-induced β-arrestin recruitment to chemokine and opioid receptors was monitored by NanoLuc complementation assay (NanoBiT, Promega). In brief, 1.2×10^6 U87 cells were plated in 10-cm culture dishes and 48 hours later co-transfected with pNBe vectors encoding GPCRs (ACKR3, MOR, DOR, KOR, or NOP) C-terminally tagged with SmBiT and human β-arrestin-1 (arrestin-2) or β-arrestin-2 (arrestin-3) N-terminally fused to LgBiT. 48 hours post-transfection cells were harvested, incubated 25 minutes at 37° C. with Nano-Glo Live Cell substrate diluted 200-fold and distributed into white 96-well plates (5×10^4 cells per well). Ligand-induced, β-arrestin to GPCRs was evaluated with a Mithras LB940 luminometer (Berthold Technologies, running on MicroWin 2010 5.19 software (Mikrotek Laborsysteme)) for 20 minutes.
For concentration-response curves (FIG. 2), the signal recorded with a saturating concentration of full agonist for each receptor was set as 100%. […]

T1 sequence (P25106 whole entry): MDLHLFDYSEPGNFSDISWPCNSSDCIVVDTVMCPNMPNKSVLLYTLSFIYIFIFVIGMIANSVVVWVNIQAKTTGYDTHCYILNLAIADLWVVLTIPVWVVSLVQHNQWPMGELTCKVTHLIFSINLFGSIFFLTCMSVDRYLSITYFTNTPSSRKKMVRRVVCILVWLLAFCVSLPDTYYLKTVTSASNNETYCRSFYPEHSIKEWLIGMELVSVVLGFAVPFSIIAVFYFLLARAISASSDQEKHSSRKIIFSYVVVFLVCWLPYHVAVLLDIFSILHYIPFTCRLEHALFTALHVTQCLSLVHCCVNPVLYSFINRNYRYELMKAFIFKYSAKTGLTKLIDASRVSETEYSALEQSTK

Row | Emax (ACKR3 [1]) [%] | EC50 (ACKR3 [1]) [µM] | ACKR3 delivery to the endosomes (ACKR3 [2]) | activation of MOR (β-arrestin-2 recruitment) (MOR) | Compound
1 | 181 ± 4 | 27.3 ± 0.44 | delivery to the endosomes | not active | C/C=C1/CN2CC[C@H]1C(=O)c1[nH]c3ccccc3c1C2 [WW-1, (4E,5R)-4-ethylidene-1,4,5,7-tetrahydro-2,5-ethanoazocino[4,3-b]indol-6(3H)-one]
2 | 140 ± 11 | 0.353 ± 0.019 | delivery to the endosomes | not active | C/C=C1/CN(CCCCC)CC[C@H]1C(=O)c1cc2ccccc2[nH]1 [WW-12, [(3E,4R)-3-ethylidene-1-pentylpiperidin-4-yl](1H-indol-2-yl)methanone]
